From ChEMBL document CHEMBL1150943, “Three dolabellanes and a macrolide from the sponge Dysidea sp. from Palau” (J Nat Prod, 1998)

Legend:
HCT-116 = test: Cytotoxicity against human HCT116 cells after 72 hrs by MTS assay; assay type: functional, cell-based; details: HCT-116, 72 h
A2780 = test: Cytotoxicity against human A2780 cells after 72 hrs by MTS assay; assay type: functional, cell-based; details: A2780, 72 h

Row | SMILES | IC50 (HCT-116) [µM] | IC50 (A2780) [µM]
1 | C=C(CCCC(O)CC(C)O)C[C@H]1CC(=C)C[C@@H](O)C/C(C)=C/[C@H](O)CCCC(=O)O1 (stereo not given in full) [ARENOLIDE] | 21 | 9.8
2 | CC(=O)O[C@H]1/C=C(/C)CC(=O)C[C@@H](C)/C=C/[C@@]2(C)CC[C@@H](C(C)(C)OC(C)=O)[C@H]12 (relative stereo) |  | 25
3 | CC(=O)O[C@H]1C/C(C)=C/C(=O)C[C@@H](C)/C=C/[C@@]2(C)CC[C@@H](C(C)(C)OC(C)=O)[C@H]12 (relative stereo) | 80 | 42
